{"source": "patent US20230133504A1", "about": "“METHOD OF TREATING GRAFT-VERSUS-HOST DISEASE” (REGENTS OF THE UNIVERSITY OF MICHIGAN, priority 2021, published 2023)", "key": {"[1]": {"test_system": "acute GVHD in BALB/c recipient mice", "experiment": "acute GVHD model, C57BL/6 (H-2Kb) into BALB/c (H-2Kd) MHC mismatch bone marrow transplantation", "type": "in vivo, mouse", "settings": "for survival: allogeneic recipients, 25 mg/kg i.p., p<0.001", "experimental": "FIGS. 1A-1C. Compound No. 36 treatment of acute GVHD model. BALB/c recipient mice on day 0 received 5×10^6 of bone marrow cells and 1×10^6 of purified splenic T cells from allogeneic C57BL/6 donor or syngeneic BALB/c donor following lethal irradiation with 800 rads on day −1. Recipients received intraperitoneal injections of 25 mg/kg of Compound No. 36 or vector starting on day −1, then three times weekly, from day −1 to day 21. Mice were monitored […]. […] Data in *, P<0.05; **, P<0.01. Syn—syngenic; Allo—allogeneic.\nTo determine whether Compound No. 36 affects established parameters of acute GVHD, a well-established C57BL/6 (H-2Kb) into a BALB/c (H-2Kd) major histocompatibility complex (MHC) mismatch model was used. On day 0, BALB/c recipient mice received 5×10^6 of bone marrow cells and 1×10^6 of purified splenic T cells from allogeneic C57BL/6 donor or syngeneic BALB/c donor following lethal irradiation with 800 centiGray (units of radiation) on day −1. Recipients received intraperitoneal injections of 25 mg/kg every other day of Compound No. 36 or vector from day −1 to day 21. Mice were monitored daily for survival and weekly for GVHD score."}, "[2]": {"test_system": "A20 mouse BALB/c lymphoma cell line in BALB/c recipient mice", "experiment": "graft-versus tumor (GVT): acute GVHD model challenged with A20 tumor cells", "type": "in vivo", "excerpt": "FIGS. 2A-2C. Compound No. 36 treatment of acute GVHD model challenged with A20 tumor cells. Using the same method as described in FIGS. 1A-1C, BALB/c recipient mice underwent major histocompatibility complex (MHC) major mismatch allogeneic bone marrow transplantation (BMT) with C57BL/6 donor or with BALB/c donor as syngeneic control. BALB/c recipient mice on day 0 received 5×10^6 of bone marrow cells and 1×10^6 of purified splenic T cells with or without 0.5×10^6 A20 cells inoculum. As indicated here, recipients received intraperitoneal injections of 25 mg/kg of Compound No. 36 or vector starting on day −1, then three time weekly, from day −1 to day 21. Mice were monitored weekly for survival and GVHD score. FIG. 2A indicates body weight changes of animals measured weekly.\nData in *, P<0.05; **, P<0.01. Syn—syngenic; Allo—allogeneic.\nAs GVHD is tightly linked to the graft-versus tumor (GVT) response, testing was undertaken to determine whether Compound No. 36 treatment reduces the effect of GVT in the same mouse model as for GVHD (Example 1). To that end, a mouse BALB/c lymphoma cell line, A20 (0.5×10^6), thus syngeneic to the recipients, was incorporated to the bone marrow transplantation (BMT) cell inoculum on day 0. Recipients received the same doses of Compound No. 36 or vector from day −1 to day 21 as the above model. Syngeneic recipients of BALB/c to BALB/c were also setup with or without A20 cell inoculum and injected the same doses of Compound No. 36 or vector. Syngeneic recipients challenged with A20 cells got systemic tumor infiltration (lower-limb paralysis, hepatosplenomegaly) and 100% of recipients died within 3 weeks after BMT without Compound No. 36 treatment (FIG. 2A and FIG. 2B)."}, "[3]": {"test_system": "small intestinal organoids", "experiment": "small intestinal organoids culture in vitro (GFP-Lgr5 transgenic mouse crypts)", "type": "cell-based", "experimental": "FIGS. 3A-3D display the effect of Compound No. 36 on intestinal organoids culture in vitro. Intestinal organoids were established from culture of small intestinal crypts in GFP-Lgr5 transgene B6 mice. 3-5 passages of organoids were used to test the effect of Compound No. 36 in vitro. After dissociation of organoids, 100 crypts per well mixed with Matrigel-culture medium were plated in 24-well plate. After the Matrigel polymerized, 500 μL of culture medium with different concentrations of Compound No. 36 or vector were added to each well. The growth of the organoids was checked daily. Three days after coculture, organoid numbers and budding numbers were counted under the microscope and were photographed (FIG. 3A). Then, organoids were mechanically disrupted and dissociated into single cells with TrypLE Express. Cells were stained with anti-CD326, annexin V, and 7-AAD to analyze GFP-Lgr5^hi cells apoptosis by flow cytometry (FIGS. 3B-3D).\nTo further determine whether Compound No. 36 has any direct GVHD organ (e.g., GI tract) toxicity or conversely, a regenerative effects, in the context of BMT, various concentrations of Compound No. 36 was cocultured with established small intestinal organoids, in which the intestine crypts were from the GFP-Leucine-rich repeat-containing G protein-coupled receptor 5 (Lgr5) transgenic mouse strain. Intestinal organoids were established from culture of small intestinal crypts in GFP-Lgr5 transgene B6 mice. 3-5 passages of organoids were used to test the effect of Compound No. 36 in vitro. After dissociation of organoids, 100 crypts per well mixed with Matrigel-culture medium were plated in 24-well plate. After the Matrigel polymerized, 500 μL of culture medium with different concentrations of Compound No. 36 or vector were added to each well. Orgonoid growth was assessed daily. Three days after coculture, organoid numbers and budding numbers were counted under the microscope and were photographed (FIG. 3A). […] Organoids were then mechanically disrupted and dissociated into single cells with TrypLE Express. […]"}}}
{"compound": "NC(=O)CC[C@H](NC(=O)[C@@H]1CC[C@@H]2CCN(C(=O)CCCCCC#Cc3cccc4c3CN(C3CCC(=O)NC3=O)C4=O)C[C@H](NC(=O)c3cc4cc(C(F)(F)P(=O)(O)O)ccc4[nH]3)C(=O)N21)C(=O)NC(c1ccccc1)c1ccccc1", "note": "(stereo partly drawn) [Compound No. 36, ((2-(((5S,8S,10aR)-8-(((S)-5-amino-1-(benzhydrylamino)-1,5-dioxopentan-2-yl)carbamoyl)-3-(8-(2-(2,6-dioxopiperidin-3-yl)-1-oxoisoindolin-4-yl)oct-7-ynoyl)-6-oxodecahydropyrrolo[1,2-a][1,5]diazocin-5-yl)carbamoyl)-1H-indol-5-yl)difluoromethyl)phosphonic acid]", "values": [{"measurement": "acute GVHD severity (body weight loss and clinical GVHD scores)", "setting": "[1]; allogeneic C57BL/6 to BALB/c, 25 mg/kg intraperitoneal every other day, day -1 to day 21, vs. vector", "value": "significantly reduce acute GVHD severity by reducing body weight loss and clinical GVHD scores"}, {"measurement": "survival", "setting": "[1]; day 50, vector 50%", "value": 100, "unit": "%"}, {"measurement": "survival", "setting": "[1]; day 100, vector 12%", "value": 53, "unit": "%"}, {"measurement": "signs of toxicity or GVHD", "setting": "[1]; syngeneic recipients BALB/c to BALB/c, same doses (25 mg/kg i.p.)", "value": "did not present any signs of toxicity"}, {"measurement": "survival rate", "setting": "[1]; syngeneic recipients BALB/c to BALB/c, same doses, until the end point", "value": 100, "unit": "%"}, {"measurement": "tumor-related death", "setting": "[2]; allogeneic GVHD model challenged with A20 cells, by 6 weeks after BMT", "value": "no tumor-related death was observed"}, {"measurement": "mice survival", "setting": "[2]; allogeneic GVHD model challenged with A20 cells, by 6 weeks after BMT, vector 50%, p<0.05", "value": 100, "unit": "%"}, {"measurement": "GVHD severity", "setting": "[2]; allogeneic GVHD model challenged with A20 cells, by 6 weeks after BMT, vs. vector", "value": "significantly reduced GVHD severity"}, {"measurement": "survival time", "setting": "[2]; syngeneic recipients receiving A20 cells (0.5x10^6), 25 mg/kg i.p. day -1 to day 21, vs. no treatment (100% died within 3 weeks)", "value": "significantly extended the survival time"}, {"measurement": "toxicity on intestine", "setting": "[3]; conclusion from the organoid data", "value": "does not have significant toxicity on intestine"}, {"measurement": "organoid numbers and budding numbers", "setting": "[3]; three days after coculture, series concentrations", "value": "No significant changes were observed"}, {"measurement": "Lgr5-GFP+ stem cells and Annexin V expression (apoptosis) by flow cytometry", "setting": "[3]; three days after coculture, vs. vector group", "value": "no differences between vector group and Compound No. 36 treatment group were observed"}]}
